In PubChem BioAssay (NCI):
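Assay format: 96-well plates, 48-hour exposure. GI50 = concentration required for 50% inhibition of growth. The concentration for full growth arrest is given as TGI.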

What was measured:
Test in all cases: NCI anticancer screen, dose series, 48 h
[1] = system: A549 NSCLC
[2] = system: BT-549 breast
[3] = system: HCT-116 colon
[4] = system: HL-60(TB) leukemia
[5] = system: MCF7 breast
[6] = system: MDA-MB-231 breast
[7] = system: NCI-H460 lung
[8] = system: OVCAR-5 ovarian

Row | SMILES | TGI [1] [µM] | TGI [2] [µM] | TGI [3] [µM] | TGI [4] [µM] | TGI [5] [µM] | TGI [6] [µM] | TGI [7] [µM] | TGI [8] [µM] | GI50 [1] [µM] | GI50 [2] [µM] | GI50 [3] [µM] | GI50 [6] [µM] | GI50 [8] [µM]
1 | CN1c2ccccc2C2c3c(O)ccc(O)c3C=C([N+](=O)[O-])C21 (stereo not drawn) | 3.57 | 13.6 | 0.651 | 3.17 | 0.346 | 7.44 | 6.02 | 5.87 | – | – | – | – | –
2 | Nc1nc(Cl)cc(Nc2ccc3c(c2)CCC3)n1 | > 100 | > 100 | > 100 | 80.9 | > 100 | > 100 | > 100 | > 100 | – | – | – | – | –
3 | Nc1nc(Cl)c2ncn(Cc3ccccc3CCl)c2n1 | 53.1 | 22.9 | > 100 | > 100 | 24.3 | 9.61 | 36.8 | 39.8 | – | – | – | – | –
4 | CCOC(=O)c1sc2nc(SC)nc(Nc3ccc(OC)c(OC)c3)c2c1N | > 100 | > 100 | > 100 | > 100 | > 100 | 82.4 | > 100 | > 100 | – | – | – | – | –
5 | Cc1c(-c2ccccc2)n(C)c2cn[nH]c(=O)c12 | > 100 | > 100 | > 100 | > 100 | > 100 | 36.9 | > 100 | > 100 | – | – | – | – | –
6 | C=CCCCC1(C)CCCCNC1=O (stereo not drawn) | > 10 | > 10 | > 10 | > 10 | > 10 | > 10 | > 10 | > 10 | – | – | – | – | –
7 | CCNC1CC(C(C)(C)NCC)CC=C1C (stereo not drawn) | > 100 | > 100 | > 100 | > 100 | > 100 | > 100 | > 100 | > 100 | – | – | – | – | –
8 | CCCCCCCCCCCCCCCCCCNc1ccn(C2OC(CO)C(OP(=O)(O)OCC3CCC(n4ccc(N)nc4=O)O3)C2O)c(=O)n1 (stereo not drawn) | > 100 | 89.8 | > 100 | 43.6 | – | > 100 | > 100 | > 100 | – | – | – | – | –
9 | CC(C)(C)SC1=CCC[C@@H](P(=O)(c2ccccc2)c2ccccc2)[C@@H]2CCC[C@@H]12 | 35.2 | 32.3 | 27.3 | 47.5 | 31.1 | – | 30.8 | 27.1 | – | – | – | – | –
10 | COc1cc(OC)c(/C=N/N=C(\N)NO)c(OC)c1 | > 100 | – | > 100 | – | > 100 | > 100 | > 100 | > 100 | – | – | – | – | –
11 | CCOC(=O)Cn1nc2ccc(Nc3nc4ccccc4nc3C(=O)OCC)cc2n1 | > 100 | > 100 | > 100 | > 100 | > 100 | – | > 100 | > 100 | – | – | – | – | –
12 | COc1cc2c[n+](C)c3c4ccccc4ccc3c2cc1OC | 23.2 | 16.7 | > 67.7 | – | > 100 | 14.8 | > 51.2 | > 100 | – | – | – | – | –
13 | Clc1ccc2c(NCCNc3nc(-c4ccccc4)cc(-c4ccccc4)n3)ccnc2c1 | 3.78 | 3.2 | 3.43 | – | – | 3.44 | – | 3.17 | 2 | 1.57 | 1.76 | 1.85 | 1.68
14 | CC1C(c2ccccc2O)c2cc3c(cc2OC1N1CCCC1)OCO3 (stereo not drawn) | > 100 | > 100 | 43.1 | 35.1 | 67.4 | 61.2 | 32.4 | > 100 | – | – | – | – | –
15 | COc1cc(Cn2c3c(c4cc(O)ccc42)C(=O)c2ccccc2C3=O)cc(OC)c1 | 49.6 | 4.86 | 12.7 | > 100 | 50.6 | 23.6 | 32.9 | 32.9 | – | – | – | – | –
16 | O=S(=O)(Nc1ccccc1S(=O)(=O)c1ccccc1)c1ccccc1 | > 100 | > 100 | > 100 | > 100 | > 100 | > 100 | – | > 100 | – | – | – | – | –
17 | O=C(O)/C(=C\c1ccccc1)Cc1ccccc1 | > 100 | > 100 | > 100 | > 100 | > 100 | > 100 | > 100 | > 100 | – | – | – | – | –
18 | COc1cccc(/C=N/n2c(-c3ccccc3)n[nH]c2=O)c1 | > 100 | 86.1 | > 100 | – | > 100 | > 100 | > 100 | > 100 | – | – | – | – | –
19 | COc1cc(/C=C2\NC(=O)N(/C=C3\C(=O)Oc4ccccc4C3=O)C2=O)ccc1O | > 100 | > 100 | > 100 | 62 | > 100 | > 100 | > 100 | > 100 | – | – | – | – | –
20 | Cn1cc(-c2ccc(CCOC3CCCCO3)cc2)c2c(C#N)cccc21 (stereo not drawn) | > 100 | > 100 | > 100 | > 100 | > 100 | > 100 | > 100 | > 100 | – | – | – | – | –
21 | CC(=O)CN=C(C)NNc1ccc([N+](=O)[O-])cc1[N+](=O)[O-] | > 100 | – | > 100 | – | > 100 | > 100 | > 100 | > 100 | – | – | – | – | –
22 | COc1ccc(C2=C(OC(C)=O)c3cccn3-c3ccccc3S2)cc1 | > 10 | – | – | 4.57 | > 10 | > 10 | – | – | – | – | – | – | –
23 | O=C1c2c(Br)sc(Br)c2[C@H]2NC(=S)O[C@@H]12 | 46.8 | 30.3 | 24.5 | – | 31.8 | 32.2 | 38.3 | 35.2 | – | – | – | – | –
24 | COc1cc(CNC(=O)CCCCCCCC/C=C/Br)ccc1O | > 10 | – | > 10 | > 10 | > 10 | > 10 | > 10 | – | – | – | – | – | –
25 | CCCCc1ccc(Nc2nc(Cl)c3[nH]cnc3n2)cc1 | > 100 | 65.4 | 29.9 | > 100 | 37.9 | 30.2 | – | > 100 | – | – | – | – | –
26 | O=[N+]([O-])C(=C1Nc2ccccc2N1)C(Cl)=C(Cl)Cl | > 100 | – | > 100 | > 100 | > 100 | 90.3 | > 100 | > 100 | – | – | – | – | –
27 | COC(=O)c1ccccc1CC1Cc2cc3c(cc2C1)CCC3 | > 100 | – | 83.1 | 23.4 | > 100 | > 100 | > 100 | > 100 | – | – | – | – | –
